Results from publication PMC7761982, “FDA-Approved Drugs with Potent In Vitro Antiviral Activity against Severe Acute Respiratory Syndrome Coronavirus 2” (Pharmaceuticals, 2020).
Read-outs that look alike come from different tables or passages of the source.

What was measured:
NRC-03-nhCoV [1] = assay: microbe, parasite or virus in culture; type: cell-based, SARS-CoV-2
SARS-CoV-2 [2] = conditions: read-out: IC50 against SARS-CoV-2 (reported); cited from earlier work
NRC-03-nhCoV [3] = assay: Viral adsorption mechanism, plaque infectivity reduction assay; type: cell-based, SARS-CoV-2
Procedure: The viral adsorption mechanism was assayed according to a protocol by Zhang and his colleagues with minor modifications. Vero-E6 cells were cultivated in a 6-well plate (10^5 cells/mL) for 24 h at 37 °C. Each tested drug was applied in 200 µL medium without supplements and co-incubated with the cells for 2 h at 4 °C. The inocula containing the non-absorbed drug were removed by washing cells three successive times with supplement-free medium. SARS-CoV-2 virus diluted to 104 PFU/well was co-incubated with the pretreated cells for 1 h, and then 3 mL DMEM supplemented with 2% agarose were added. Plates were left to solidify and then incubated at 37 °C to allow the formation of viral plaques. The plaques were fixed and stained as described above to calculate the percentage reduction in plaque formation compared to control wells, which comprised untreated Vero-E6 cells directly infected with NRC-03-nhCoV.

NRC-03-nhCoV [4] = assay: Viral replication mechanism, plaque infectivity reduction assay; type: cell-based, SARS-CoV-2
Procedure: The impact of tested drug on viral replication was determined as previously described. Vero-E6 cells were cultivated in a 6-well plate (10^5 cell/mL) for 24 h at 37 °C. Virus was inoculated directly to the cells and incubated for 1 h at 37 °C. The inocula containing the non-adsorbed viral particles were removed by washing cells three successive times with supplement-free medium. The test compound was added in varying concentrations to infected cells for another 1 h contact time. After removing the inocula containing the tested drug, 3 mL of DMEM supplemented with 2% agarose were added to the cell monolayer. Plates were left to solidify and incubated at 37 °C until the appearance of viral plaques. Cell monolayers were fixed in 10% formalin solution for 1 h and stained with crystal violet. Control wells contained Vero-E6 cells incubated with the virus. Plaques were counted and the percentage reduction in plaque formation was compared to the control wells.

MERS-CoV = assay: microbe, parasite or virus in culture; type: cell-based; conditions: for antiviral effect on MERS-CoV compared with SARS-CoV-2: equal concentrations of drug, plaque reduction assay
in vitro = conditions: African green monkey, CC50 (Vero-E6), half maximal cytotoxic concentration, MTT assay, Vero-E6 cells
SARS-CoV-2 [5] = assay: Plaque reduction assay, anti-SARS-CoV-2 activity; type: cell-based; conditions: read-out: viral inhibition, SARS-CoV-2
NRC-03-nhCoV [6] = assay: Virucidal mechanism, plaque infectivity reduction assay; type: cell-based, SARS-CoV-2; conditions: for virucidal effect: concentration not given
Procedure: The virucidal mechanism was assayed following a previously described protocol. In a 6-well plate, Vero-E6 cells were cultivated (10^5 cells/mL) for 24 h at 37 °C and 200 µL of serum-free DMEM containing SARS-CoV-2 was added to each sample with promising inhibition. After 1 h incubation, the mixture was diluted 10-fold three times using serum-free medium, which still allowed viral particles to grow on Vero-E6 cells. Next, 100 µL of each dilution were added to the Vero-E6 cell monolayer. After 1 h contact time, a DMEM overlayer was added to the cell monolayer. Plates were left to solidify and incubated at 37 °C to allow the formation of viral plaques. The plaques were fixed and stained as described above to calculate the percentage reduction in plaque formation. This value was compared to control wells comprising cells infected with virus and not pretreated with the tested material.

[7] = Severe acute respiratory syndrome coronavirus 2, Vero C1008, 72 h, Vero-E6 cells, 72 h, crystal violet, reduction of virus-induced CPE by 50%, read-out: IC50 (NRC-03-nhCoV)
[8] = Severe acute respiratory syndrome coronavirus 2, Vero C1008, negative log of the IC50 value against SARS-CoV-2, read-out: pIC50 (converted)
[9] = Middle East respiratory syndrome-related coronavirus, read-out: viral inhibition, MERS-CoV
[10] = Severe acute respiratory syndrome coronavirus 2, read-out: Viral Adsorption, percent inhibition
[11] = Severe acute respiratory syndrome coronavirus 2, read-out: Viral Replication, percent inhibition
[12] = Severe acute respiratory syndrome coronavirus 2, read-out: Virucidal, percent inhibition

In the case of `CC[C@H]1OC(=O)[C@H](C)[C@@H](O[C@H]2C[C@@](C)(OC)[C@@H](O)[C@H](C)O2)[C@H](C)[C@@H](O[C@@H]2O[C@H](C)C[C@H](N(C)C)[C@H]2O)[C@](C)(O)C[C@@H](C)CN(C)[C@H](C)[C@@H](O)[C@]1(C)O` [Azithromycin], the IC50 (NRC-03-nhCoV [1]; [7]) is listed as 0.32 µM, the IC50 (NRC-03-nhCoV [1]; [8]) is listed as 0.324 µM and the IC50 (SARS-CoV-2 [2]) is listed as 2.12 µM. For the same compound, the inhibition at 0.16 µM (NRC-03-nhCoV [3]; Severe acute respiratory syndrome coronavirus 2, 0.16 µM, read-out: Viral Adsorption, percent inhibition) was 0%, the inhibition at 0.322 µM (NRC-03-nhCoV [3]; Severe acute respiratory syndrome coronavirus 2, 0.322 µM, read-out: Viral Adsorption, percent inhibition) was 2% and the inhibition at 0.64 µM (NRC-03-nhCoV [3]; Severe acute respiratory syndrome coronavirus 2, 0.64 µM, read-out: Viral Adsorption, percent inhibition) was 27%. For the same compound, the inhibition at 1.3 µM (NRC-03-nhCoV [3]; Severe acute respiratory syndrome coronavirus 2, 1.3 µM, read-out: Viral Adsorption, percent inhibition) was ≤ 31%, the inhibition at 0.16 µM (NRC-03-nhCoV [4]; Severe acute respiratory syndrome coronavirus 2, 0.16 µM, read-out: Viral Replication, percent inhibition) was 0% and the inhibition at 0.322 µM (NRC-03-nhCoV [4]; Severe acute respiratory syndrome coronavirus 2, 0.322 µM, read-out: Viral Replication, percent inhibition) was 0%. The inhibition at 0.64 µM (NRC-03-nhCoV [4]; Severe acute respiratory syndrome coronavirus 2, 0.64 µM, read-out: Viral Replication, percent inhibition) was 2%, the inhibition at 1.3 µM (NRC-03-nhCoV [4]; Severe acute respiratory syndrome coronavirus 2, 1.3 µM, read-out: Viral Replication, percent inhibition) was 4% and the “inhibitory effect on virus replication” value (NRC-03-nhCoV [4]; concentration not given) was “negligible effect on viral replication”. For the same compound, the inhibition at 5 µM (MERS-CoV; [9]) was ~20%, the inhibition at 10 µM (MERS-CoV; [9]) was ~30% and the CC50 (in vitro) was 793 µM. It also gave an inhibition at 5 µM (SARS-CoV-2 [5]; Severe acute respiratory syndrome coronavirus 2, 5 µM (lowest concentration tested)) of ~80%, an inhibition at 10 µM (SARS-CoV-2 [5]; Severe acute respiratory syndrome coronavirus 2, 10 µM (highest concentration tested)) of ~90% and an inhibition at 0.16 µM (NRC-03-nhCoV [6]; Severe acute respiratory syndrome coronavirus 2, 0.16 µM, read-out: Virucidal, percent inhibition) of 12%. The inhibition at 0.322 µM (NRC-03-nhCoV [6]; Severe acute respiratory syndrome coronavirus 2, 0.322 µM, read-out: Virucidal, percent inhibition) was 34%, the inhibition at 0.64 µM (NRC-03-nhCoV [6]; Severe acute respiratory syndrome coronavirus 2, 0.64 µM, read-out: Virucidal, percent inhibition) was 51% and the inhibition at 1.3 µM (NRC-03-nhCoV [6]; Severe acute respiratory syndrome coronavirus 2, 1.3 µM, read-out: Virucidal, percent inhibition) was 51%. The virucidal effect (NRC-03-nhCoV [6]) was “up to 51%”.

With `O=C(Nc1ccc([N+](=O)[O-])cc1Cl)c1cc(Cl)ccc1O` [Niclosamide] the IC50 (NRC-03-nhCoV [1]; [7]) was 0.16 µM, the IC50 (NRC-03-nhCoV [1]; [8]) was 0.162 µM and the inhibition at 1.302 µM (NRC-03-nhCoV [3]; [10]) was 0%. It also gave an inhibition at 2.6 µM (NRC-03-nhCoV [3]; [10]) of 0%, an inhibition at 5.2 µM (NRC-03-nhCoV [3]; [10]) of 0% and an inhibition at 10.4 µM (NRC-03-nhCoV [3]; [10]) of 0%. For the same compound, the “inhibition during the viral adsorption stage” value (NRC-03-nhCoV [3]; concentration not given) was “negligible reduction in viral inhibition”, the inhibition at 1.302 µM (NRC-03-nhCoV [4]; [11]) was 23% and the inhibition at 2.6 µM (NRC-03-nhCoV [4]; [11]) was 55%. The inhibition at 5.2 µM (NRC-03-nhCoV [4]; Severe acute respiratory syndrome coronavirus 2, 5.2 µM, read-out: Viral Replication, percent inhibition) was 68%, the inhibition at 10.4 µM (NRC-03-nhCoV [4]; Severe acute respiratory syndrome coronavirus 2, 10.4 µM, read-out: Viral Replication, percent inhibition) was 70% and the “antiviral effect on MERS-CoV compared with SARS-CoV-2” value (MERS-CoV) was “equally effective against SARS-CoV-2 and MERS-CoV”. The CC50 (in vitro) was 205 µM, the inhibition at 1.302 µM (NRC-03-nhCoV [6]; [12]) was 16% and the inhibition at 2.6 µM (NRC-03-nhCoV [6]; [12]) was 21%. For the same compound, the inhibition at 5.2 µM (NRC-03-nhCoV [6]; [12]) was 21%, the inhibition at 10.4 µM (NRC-03-nhCoV [6]; [12]) was 37% and the virucidal effect (NRC-03-nhCoV [6]) was 37%.

Work on `CC(=O)Oc1ccccc1C(=O)Nc1ncc([N+](=O)[O-])s1` [Nitazoxanide] yielded an IC50 (NRC-03-nhCoV [1]; [7]) of 1.29 µM, an IC50 (NRC-03-nhCoV [1]; [8]) of 1.29 µM and an inhibition at 1.302 µM (NRC-03-nhCoV [3]; [10]) of 0%. It also gave an inhibition at 2.6 µM (NRC-03-nhCoV [3]; [10]) of 1%, an inhibition at 5.2 µM (NRC-03-nhCoV [3]; [10]) of 11% and an inhibition at 10.4 µM (NRC-03-nhCoV [3]; [10]) of 11%. The “Viral Replication, percent inhibition” value (NRC-03-nhCoV [4]; 5.2 µM) was “Toxic”, the “Viral Replication, percent inhibition” value (NRC-03-nhCoV [4]; 10.4 µM) was “Toxic” and the inhibition at 1.302 µM (NRC-03-nhCoV [4]; [11]) was 35%. The inhibition at 2.6 µM (NRC-03-nhCoV [4]; [11]) was 40%, the “antiviral effect on MERS-CoV compared with SARS-CoV-2” value (MERS-CoV) was “equally effective against SARS-CoV-2 and MERS-CoV” and the CC50 (in vitro) was 665 µM. For the same compound, the inhibition at 1.302 µM (NRC-03-nhCoV [6]; [12]) was 39%, the inhibition at 2.6 µM (NRC-03-nhCoV [6]; [12]) was 61% and the inhibition at 5.2 µM (NRC-03-nhCoV [6]; [12]) was 75%. It also gave an inhibition at 10.4 µM (NRC-03-nhCoV [6]; [12]) of 78%.
